Experimental data taken from patent publication US12076315B2 (Clear Creek Bio, Inc., priority 2020, dated 2024).
Entries after “also recorded” stand apart in the source; their conditions may differ. Read-outs that look alike come from different tables or passages of the source.

Details: for Stability of the polymorphic form under ambient conditions (temperature and humidity): unstable forms convert to Pattern C; for Stability of the polymorphic form under ambient conditions (temperature and humidity) / Time after which the polymorph converts to Pattern C: sodium salt; for Comments: stability of the polymorph: Table 3, solid polymorph of brequinar sodium salt on storage

| Compound | Stability of the polymorphic form under ambient conditions (temperature and humidity) | Comments: stability of the polymorph | Time after which the polymorph converts to Pattern C (at ambient condition) | Stability of the polymorphic form under ambient conditions (temperature and humidity) (listed as polymorphic form C) | Time after which the polymorph converts to Pattern C (closed cap storage) |
| --- | --- | --- | --- | --- | --- |
| Cc1c(-c2ccc(-c3ccccc3F)cc2)nc2ccc(F)cc2c1C(=O)[O-].[Na+] [Pattern A, 6-Flouro-2-(2′-fluoro-1,1′-biphenyl-4-yl)-3-methyl-4-quinolinecarboxylic acid sodium salt] | metastable | – | – | – | – |
| Cc1c(-c2ccc(-c3ccccc3F)cc2)nc2ccc(F)cc2c1C(=O)[O-].[Na+] [Pattern B, 6-Flouro-2-(2′-fluoro-1,1′-biphenyl-4-yl)-3-methyl-4-quinolinecarboxylic acid sodium salt] | unstable | hydrate KF 4.8% unstable, | convert to Pattern C after 4 days | – | – |
| Cc1c(-c2ccc(-c3ccccc3F)cc2)nc2ccc(F)cc2c1C(=O)[O-].[Na+] [Pattern C, 6-Flouro-2-(2′-fluoro-1,1′-biphenyl-4-yl)-3-methyl-4-quinolinecarboxylic acid sodium salt] | – | – | – | stable; also recorded: most stable | – |
| Cc1c(-c2ccc(-c3ccccc3F)cc2)nc2ccc(F)cc2c1C(=O)[O-].[Na+] [Pattern D, 6-Flouro-2-(2′-fluoro-1,1′-biphenyl-4-yl)-3-methyl-4-quinolinecarboxylic acid sodium salt] | unstable | – | C after 3 days at ambient | – | – |
| Cc1c(-c2ccc(-c3ccccc3F)cc2)nc2ccc(F)cc2c1C(=O)[O-].[Na+] [Pattern E, 6-Flouro-2-(2′-fluoro-1,1′-biphenyl-4-yl)-3-methyl-4-quinolinecarboxylic acid sodium salt] | unstable | – | – | – | Pattern C after 1 week |
| Cc1c(-c2ccc(-c3ccccc3F)cc2)nc2ccc(F)cc2c1C(=O)[O-].[Na+] [Pattern F, 6-Flouro-2-(2′-fluoro-1,1′-biphenyl-4-yl)-3-methyl-4-quinolinecarboxylic acid sodium salt] | unstable | – | – | – | Pattern C after 1 week |
| Cc1c(-c2ccc(-c3ccccc3F)cc2)nc2ccc(F)cc2c1C(=O)[O-].[Na+] [Pattern G, 6-Flouro-2-(2′-fluoro-1,1′-biphenyl-4-yl)-3-methyl-4-quinolinecarboxylic acid sodium salt] | unstable | 15.3%), unstable, convert | to Pattern C after 2 weeks | – | – |
| Cc1c(-c2ccc(-c3ccccc3F)cc2)nc2ccc(F)cc2c1C(=O)[O-].[Na+] [Pattern I, 6-Flouro-2-(2′-fluoro-1,1′-biphenyl-4-yl)-3-methyl-4-quinolinecarboxylic acid sodium salt] | unstable | KF 7.3%, unstable, | 2 days at ambient condition. | – | – |
| Cc1c(-c2ccc(-c3ccccc3F)cc2)nc2ccc(F)cc2c1C(=O)[O-].[Na+] [Pattern J, 6-Flouro-2-(2′-fluoro-1,1′-biphenyl-4-yl)-3-methyl-4-quinolinecarboxylic acid sodium salt] | unstable | Unstable, convert to Pattern | – | – | C after 2 weeks (closed cap |
